Calls of active or inactive are those of the source.
How the values were obtained:
Coagulation factor XII = target: T1, Coagulation factor XII (Homo sapiens, UniProt P00748); assay: Factor XIIa Dose Response Confirmation from Single Well HTS. [Related pubchem assays (depositor defined):AID701]; type: functional
T1 sequence (P00748 whole entry): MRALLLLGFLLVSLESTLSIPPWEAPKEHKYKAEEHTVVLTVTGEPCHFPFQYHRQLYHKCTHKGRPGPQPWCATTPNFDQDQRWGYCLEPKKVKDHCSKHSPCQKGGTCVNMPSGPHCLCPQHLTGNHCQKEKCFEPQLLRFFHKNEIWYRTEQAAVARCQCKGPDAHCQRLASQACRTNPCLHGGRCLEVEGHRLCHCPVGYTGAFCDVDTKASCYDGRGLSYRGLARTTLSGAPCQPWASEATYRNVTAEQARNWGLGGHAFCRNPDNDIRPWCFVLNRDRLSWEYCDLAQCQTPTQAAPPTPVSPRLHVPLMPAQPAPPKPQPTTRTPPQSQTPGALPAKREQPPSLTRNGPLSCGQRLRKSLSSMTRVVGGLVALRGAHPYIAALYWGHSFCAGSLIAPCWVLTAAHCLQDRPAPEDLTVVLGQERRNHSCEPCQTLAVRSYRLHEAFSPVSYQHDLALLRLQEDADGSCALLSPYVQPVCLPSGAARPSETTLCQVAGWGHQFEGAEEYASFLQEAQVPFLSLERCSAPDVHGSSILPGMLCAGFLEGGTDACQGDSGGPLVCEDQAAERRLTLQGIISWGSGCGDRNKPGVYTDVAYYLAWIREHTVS

Mu-type opioid receptor = Mu-type opioid receptor (Homo sapiens, UniProt P35372); type: functional, cell-based;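 also: U2OS cells with beta-arrestin recruitment to OPRM1 by beta-gal complementation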
[1] = target: 5-hydroxytryptamine receptor 2A (Mus musculus, UniProt P35363); type: functional, cell-based;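 also: CHO-K1 cells with tagged receptor and beta-arrestin; agonist potency measured as compound-induced activation of the receptor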
Genome polyprotein = Genome polyprotein (dengue virus type 2, UniProt P29990); assay: Dengue-2 NS5 methyltransferase inhibitors, primary screen, biochemical, confirmation dose response (AID 588689); type: functional
[2] = target: T2, Probable nicotinate-nucleotide adenylyltransferase (Staphylococcus aureus (strain N315), UniProt P65502); type: functional, Staphylococcus aureus subsp. aureus N315;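 as to IC50 Mean: confirmatory dose-response retesting of NadD inhibitor hits first found in an ultra-high-throughput screen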
[3] = target: T2, Probable nicotinate-nucleotide adenylyltransferase; type: functional, Staphylococcus aureus subsp. aureus N315; conditions: read-out: IC50_Mean
[4] = target: Hepatocyte nuclear factor 4-alpha (Homo sapiens, UniProt P41235); type: functional, cell-based;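 also: biochemical luminescence-based dose-response counterscreen measuring inhibition of HNF4 dimerization, run alongside a screen for blockers of ABHD5–perilipin-5 interaction; split luciferase complementation of HNF4 fusion proteins in cell lysate measuring dimerization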
[5] = MDA-MB-231 cell growth inhibition, dose response, cytotoxicity control for RAD54 inhibitor project, CellTiter-Glo luminescence, cherry-pick (AID 651692); type: functional, cell-based
[6] = HeLa cell cytotoxicity, dose response, cytotoxicity control for MgcRacGAP inhibitor project (AID 624300); type: functional
[7] = target: T3, DNA repair and recombination protein RAD54-like (Homo sapiens, UniProt Q92698); assay: inhibitors of human RAD54 branch migration, confirmation, biochemical, fluorescence, cherry-picked samples, dose series (AID 651657); type: functional
T3 sequence (Q92698 whole entry): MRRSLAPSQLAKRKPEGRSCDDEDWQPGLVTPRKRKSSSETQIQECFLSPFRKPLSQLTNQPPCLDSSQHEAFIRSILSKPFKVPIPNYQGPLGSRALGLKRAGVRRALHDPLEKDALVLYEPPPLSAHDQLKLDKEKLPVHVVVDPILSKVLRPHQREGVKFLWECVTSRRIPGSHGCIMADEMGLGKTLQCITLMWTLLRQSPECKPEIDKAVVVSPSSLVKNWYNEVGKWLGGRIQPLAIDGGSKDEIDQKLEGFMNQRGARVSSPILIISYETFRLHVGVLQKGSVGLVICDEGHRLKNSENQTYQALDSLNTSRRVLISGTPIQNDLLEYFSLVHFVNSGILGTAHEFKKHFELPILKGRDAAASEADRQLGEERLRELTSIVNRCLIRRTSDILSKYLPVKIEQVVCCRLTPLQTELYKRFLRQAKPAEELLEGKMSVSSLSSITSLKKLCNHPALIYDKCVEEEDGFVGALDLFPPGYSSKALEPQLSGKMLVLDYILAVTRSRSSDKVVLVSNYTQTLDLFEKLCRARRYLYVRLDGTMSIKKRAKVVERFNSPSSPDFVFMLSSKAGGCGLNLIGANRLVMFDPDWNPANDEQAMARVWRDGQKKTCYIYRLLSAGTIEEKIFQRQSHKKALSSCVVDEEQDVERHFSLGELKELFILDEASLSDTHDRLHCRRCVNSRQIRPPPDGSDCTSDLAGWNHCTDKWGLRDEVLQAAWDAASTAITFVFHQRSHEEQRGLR

[8] = target: T4, Rac GTPase-activating protein 1 (Homo sapiens, UniProt Q9H0H5); assay: MgcRacGAP GTPase-activating activity inhibitors, confirmation, biochemical, ADP Hunter fluorescence, primary and confirmatory (AID 624330); type: functional
T4 sequence (Q9H0H5 whole entry): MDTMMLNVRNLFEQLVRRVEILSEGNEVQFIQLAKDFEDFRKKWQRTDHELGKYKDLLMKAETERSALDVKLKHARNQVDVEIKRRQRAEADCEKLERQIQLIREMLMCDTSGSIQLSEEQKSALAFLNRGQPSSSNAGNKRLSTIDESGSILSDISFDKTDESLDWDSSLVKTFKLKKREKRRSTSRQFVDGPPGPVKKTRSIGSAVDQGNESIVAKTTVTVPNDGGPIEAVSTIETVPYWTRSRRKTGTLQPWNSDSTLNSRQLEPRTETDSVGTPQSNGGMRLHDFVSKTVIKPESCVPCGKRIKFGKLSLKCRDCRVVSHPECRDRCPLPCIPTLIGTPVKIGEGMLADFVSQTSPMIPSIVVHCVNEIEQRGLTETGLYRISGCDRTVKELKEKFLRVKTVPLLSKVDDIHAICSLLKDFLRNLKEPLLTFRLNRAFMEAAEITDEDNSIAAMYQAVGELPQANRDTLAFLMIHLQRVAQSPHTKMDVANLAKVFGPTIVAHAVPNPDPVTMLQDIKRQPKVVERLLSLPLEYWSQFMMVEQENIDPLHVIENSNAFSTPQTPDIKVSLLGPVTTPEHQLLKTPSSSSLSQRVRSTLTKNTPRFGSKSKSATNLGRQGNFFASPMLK

[9] = target: T5, DNA repair protein RAD52 homolog (Homo sapiens, UniProt P43351); type: functional, biochemical
T5 sequence (P43351 whole entry): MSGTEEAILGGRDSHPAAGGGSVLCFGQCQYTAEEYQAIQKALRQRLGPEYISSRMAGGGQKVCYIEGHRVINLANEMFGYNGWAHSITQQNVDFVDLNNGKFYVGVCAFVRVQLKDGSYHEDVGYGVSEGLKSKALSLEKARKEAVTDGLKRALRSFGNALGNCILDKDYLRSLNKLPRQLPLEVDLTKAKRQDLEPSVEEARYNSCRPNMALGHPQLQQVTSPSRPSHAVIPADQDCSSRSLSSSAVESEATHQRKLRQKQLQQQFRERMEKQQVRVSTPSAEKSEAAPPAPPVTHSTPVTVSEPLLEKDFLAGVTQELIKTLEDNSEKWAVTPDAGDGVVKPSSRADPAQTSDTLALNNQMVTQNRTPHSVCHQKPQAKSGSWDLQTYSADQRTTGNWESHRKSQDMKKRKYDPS

[10] = target: T6, Histone-lysine N-methyltransferase NSD2 (Homo sapiens, UniProt O96028); type: biochemical
T6 sequence (O96028 whole entry): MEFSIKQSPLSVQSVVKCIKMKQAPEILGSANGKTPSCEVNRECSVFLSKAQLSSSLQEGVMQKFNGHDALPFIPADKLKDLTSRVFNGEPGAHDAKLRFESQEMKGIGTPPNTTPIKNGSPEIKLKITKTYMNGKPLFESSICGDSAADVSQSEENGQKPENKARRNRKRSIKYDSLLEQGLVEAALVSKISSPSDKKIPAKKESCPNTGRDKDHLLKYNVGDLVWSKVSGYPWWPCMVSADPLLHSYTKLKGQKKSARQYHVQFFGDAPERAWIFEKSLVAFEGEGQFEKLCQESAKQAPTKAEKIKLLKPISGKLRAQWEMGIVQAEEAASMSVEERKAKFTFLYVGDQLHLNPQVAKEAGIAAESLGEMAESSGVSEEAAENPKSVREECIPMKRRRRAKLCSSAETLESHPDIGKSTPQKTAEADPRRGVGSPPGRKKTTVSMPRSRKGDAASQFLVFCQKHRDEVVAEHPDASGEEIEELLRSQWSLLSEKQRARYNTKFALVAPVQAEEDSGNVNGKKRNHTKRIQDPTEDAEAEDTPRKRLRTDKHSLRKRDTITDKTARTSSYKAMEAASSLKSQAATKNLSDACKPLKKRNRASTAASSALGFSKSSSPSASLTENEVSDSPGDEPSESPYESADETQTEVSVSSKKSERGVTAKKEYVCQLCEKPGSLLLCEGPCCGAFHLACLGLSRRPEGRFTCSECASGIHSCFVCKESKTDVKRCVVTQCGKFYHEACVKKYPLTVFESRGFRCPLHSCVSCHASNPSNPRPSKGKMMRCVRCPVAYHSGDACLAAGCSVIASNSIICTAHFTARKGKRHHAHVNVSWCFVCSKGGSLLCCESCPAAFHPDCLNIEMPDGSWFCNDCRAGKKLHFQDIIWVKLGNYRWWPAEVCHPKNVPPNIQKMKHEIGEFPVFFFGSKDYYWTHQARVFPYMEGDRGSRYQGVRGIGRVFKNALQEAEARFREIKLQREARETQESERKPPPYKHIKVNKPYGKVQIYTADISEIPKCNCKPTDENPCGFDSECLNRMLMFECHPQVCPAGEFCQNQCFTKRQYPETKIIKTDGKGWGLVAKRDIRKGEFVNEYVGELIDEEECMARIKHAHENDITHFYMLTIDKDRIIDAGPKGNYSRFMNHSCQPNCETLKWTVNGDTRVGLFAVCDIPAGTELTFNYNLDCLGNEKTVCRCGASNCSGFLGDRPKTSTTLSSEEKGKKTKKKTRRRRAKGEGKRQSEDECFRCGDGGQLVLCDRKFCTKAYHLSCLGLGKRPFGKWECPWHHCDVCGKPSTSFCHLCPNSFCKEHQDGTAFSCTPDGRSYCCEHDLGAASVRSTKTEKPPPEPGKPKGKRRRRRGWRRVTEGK

Beta-lactamase [11] = target: Beta-lactamase (Salmonella choleraesuis (strain SC-B67), UniProt Q5J463); assay: Epi-absorbance-based counterscreen for selective VIM-2 inhibitors: dose response biochemical high throughput screening assay to identify inhibitors of TEM-1 serine-beta-lactamase.
Beta-lactamase [12] = target: T7, Beta-lactamase (Pseudomonas aeruginosa, UniProt Q79MP6); assay: IMP-1 metallo-beta-lactamase inhibitors, dose response, selectivity assay for VIM-2 inhibitor project, biochemical, epi-absorbance (AID 1920)
Beta Lactamase [13] = target: T8, Beta Lactamase (Pseudomonas aeruginosa, UniProt Q932Y6); assay: VIM-2 metallo-beta-lactamase inhibitor potency, dose response, biochemical, epi-absorbance readout, selective inhibitors (AID 1919)
Beta-lactamase [14] = target: T7, Beta-lactamase; assay: […] counterscreen for selective VIM-2 inhibitors: dose response biochemical high throughput screening assay to identify inhibitors of IMP-1 metallo-beta-lactamase.
Beta Lactamase [15] = target: T8, Beta Lactamase; assay: VIM-2 inhibitor FRET-based artefact check, dose response, artefact control for selective VIM-2 inhibitor project, biochemical, FRET readout, CCF2 substrate (AID 1926)
[16] = HEK293T cell cytotoxicity, dose response, cytotoxicity control for HIV Vif inhibitor project, cherry-picks (AID 652208); type: functional, cell-based
[17] = target: T9, Sentrin-specific protease 1 (Homo sapiens, UniProt Q9P0U3); assay: potency of human SENP1 inhibitors, dose response, biochemical, kinetic FRET (AID 651697); type: functional; conditions: read-out: IC50_Mean
T9 sequence (Q9P0U3 whole entry): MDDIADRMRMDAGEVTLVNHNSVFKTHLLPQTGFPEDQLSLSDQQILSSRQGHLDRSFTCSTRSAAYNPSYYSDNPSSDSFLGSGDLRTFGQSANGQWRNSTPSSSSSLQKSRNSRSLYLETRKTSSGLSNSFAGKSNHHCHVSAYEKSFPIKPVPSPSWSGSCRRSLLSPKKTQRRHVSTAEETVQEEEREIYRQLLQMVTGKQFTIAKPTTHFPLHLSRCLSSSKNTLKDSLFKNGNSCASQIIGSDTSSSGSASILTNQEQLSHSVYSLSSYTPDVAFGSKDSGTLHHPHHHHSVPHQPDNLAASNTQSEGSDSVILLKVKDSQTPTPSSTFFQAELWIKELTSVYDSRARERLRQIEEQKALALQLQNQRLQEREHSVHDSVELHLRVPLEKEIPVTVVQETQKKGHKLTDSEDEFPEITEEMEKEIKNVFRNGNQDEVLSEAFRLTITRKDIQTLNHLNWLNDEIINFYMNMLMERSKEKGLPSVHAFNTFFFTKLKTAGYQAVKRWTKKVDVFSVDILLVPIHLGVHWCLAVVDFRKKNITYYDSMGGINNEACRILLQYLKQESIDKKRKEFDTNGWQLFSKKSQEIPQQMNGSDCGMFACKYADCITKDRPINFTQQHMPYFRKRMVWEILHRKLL

[18] = target: T9, Sentrin-specific protease 1; assay: Dose response confirmation of small molecule inhibitors of the catalytic domain of the SUMO protease, SENP1 in a FRET assay.; type: functional; conditions: read-out: IC50_Mean

T7 sequence (Q79MP6 whole entry): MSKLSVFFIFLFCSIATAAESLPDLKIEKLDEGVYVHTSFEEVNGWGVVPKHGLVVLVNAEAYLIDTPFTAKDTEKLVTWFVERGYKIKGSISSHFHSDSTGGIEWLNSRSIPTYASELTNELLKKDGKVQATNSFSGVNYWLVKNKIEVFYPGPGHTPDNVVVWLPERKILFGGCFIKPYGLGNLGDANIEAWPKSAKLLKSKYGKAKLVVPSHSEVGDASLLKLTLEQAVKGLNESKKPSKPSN
T8 sequence (Q932Y6 whole entry): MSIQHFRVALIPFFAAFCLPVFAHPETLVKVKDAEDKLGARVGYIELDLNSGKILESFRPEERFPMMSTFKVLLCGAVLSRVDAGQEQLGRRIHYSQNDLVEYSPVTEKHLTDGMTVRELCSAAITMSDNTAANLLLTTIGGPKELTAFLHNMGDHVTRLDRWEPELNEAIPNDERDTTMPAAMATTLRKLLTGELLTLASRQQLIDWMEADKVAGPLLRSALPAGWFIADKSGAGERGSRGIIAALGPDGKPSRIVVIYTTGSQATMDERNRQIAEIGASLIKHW
T2 sequence (P65502 whole entry): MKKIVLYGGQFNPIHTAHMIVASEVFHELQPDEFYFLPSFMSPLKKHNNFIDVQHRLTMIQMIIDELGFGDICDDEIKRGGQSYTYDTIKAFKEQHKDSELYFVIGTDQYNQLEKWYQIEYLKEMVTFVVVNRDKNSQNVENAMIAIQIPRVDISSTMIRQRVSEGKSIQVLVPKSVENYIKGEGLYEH
Sequence of Mu-type opioid receptor (P35372 whole entry): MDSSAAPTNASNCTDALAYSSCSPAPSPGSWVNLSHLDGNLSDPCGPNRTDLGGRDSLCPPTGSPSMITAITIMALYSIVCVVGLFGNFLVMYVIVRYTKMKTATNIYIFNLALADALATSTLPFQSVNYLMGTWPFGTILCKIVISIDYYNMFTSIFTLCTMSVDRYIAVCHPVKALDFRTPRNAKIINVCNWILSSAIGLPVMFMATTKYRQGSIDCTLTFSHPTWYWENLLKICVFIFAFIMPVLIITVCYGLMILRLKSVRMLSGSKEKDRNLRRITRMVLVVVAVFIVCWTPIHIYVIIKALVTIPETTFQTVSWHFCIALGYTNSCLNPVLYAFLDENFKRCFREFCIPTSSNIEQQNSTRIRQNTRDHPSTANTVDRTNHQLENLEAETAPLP
Sequence of Genome polyprotein (P29990 2492-3391 limits assumed): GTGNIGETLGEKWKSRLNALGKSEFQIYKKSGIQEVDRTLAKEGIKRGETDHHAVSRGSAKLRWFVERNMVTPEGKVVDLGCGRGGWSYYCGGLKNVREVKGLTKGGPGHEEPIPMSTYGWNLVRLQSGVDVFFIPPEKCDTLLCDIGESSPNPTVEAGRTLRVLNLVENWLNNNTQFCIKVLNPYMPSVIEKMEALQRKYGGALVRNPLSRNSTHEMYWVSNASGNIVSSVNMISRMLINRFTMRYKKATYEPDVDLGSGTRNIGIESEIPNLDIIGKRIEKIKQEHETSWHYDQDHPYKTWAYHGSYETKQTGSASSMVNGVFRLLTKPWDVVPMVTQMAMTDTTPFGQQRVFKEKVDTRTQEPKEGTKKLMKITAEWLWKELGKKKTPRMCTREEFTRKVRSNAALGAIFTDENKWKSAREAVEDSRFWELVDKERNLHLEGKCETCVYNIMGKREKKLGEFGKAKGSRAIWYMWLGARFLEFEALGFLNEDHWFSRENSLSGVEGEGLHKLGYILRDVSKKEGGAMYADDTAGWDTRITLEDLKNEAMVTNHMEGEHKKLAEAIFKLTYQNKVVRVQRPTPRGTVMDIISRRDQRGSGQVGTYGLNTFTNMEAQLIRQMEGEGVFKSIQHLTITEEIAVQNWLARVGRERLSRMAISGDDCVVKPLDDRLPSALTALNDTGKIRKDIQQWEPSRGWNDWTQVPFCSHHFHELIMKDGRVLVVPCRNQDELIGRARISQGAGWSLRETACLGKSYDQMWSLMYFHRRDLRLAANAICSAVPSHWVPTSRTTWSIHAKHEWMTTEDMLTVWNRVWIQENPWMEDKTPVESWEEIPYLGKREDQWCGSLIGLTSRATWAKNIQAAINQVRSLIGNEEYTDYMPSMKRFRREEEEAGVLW
Sequence of Hepatocyte nuclear factor 4-alpha (P41235 whole entry, the tested form may be a part): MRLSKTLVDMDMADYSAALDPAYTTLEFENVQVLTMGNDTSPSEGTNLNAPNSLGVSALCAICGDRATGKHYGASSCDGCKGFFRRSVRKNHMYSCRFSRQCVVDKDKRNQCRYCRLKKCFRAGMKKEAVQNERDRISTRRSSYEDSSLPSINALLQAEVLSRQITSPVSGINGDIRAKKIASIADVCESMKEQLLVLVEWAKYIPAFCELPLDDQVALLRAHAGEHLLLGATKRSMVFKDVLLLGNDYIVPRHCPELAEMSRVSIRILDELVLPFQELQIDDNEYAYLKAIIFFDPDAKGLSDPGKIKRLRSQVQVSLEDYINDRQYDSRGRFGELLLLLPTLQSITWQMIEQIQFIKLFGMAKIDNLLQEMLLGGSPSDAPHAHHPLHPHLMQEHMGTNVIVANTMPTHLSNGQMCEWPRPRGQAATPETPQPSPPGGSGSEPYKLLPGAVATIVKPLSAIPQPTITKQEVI
Sequence of 5-hydroxytryptamine receptor 2A (P35363 whole entry): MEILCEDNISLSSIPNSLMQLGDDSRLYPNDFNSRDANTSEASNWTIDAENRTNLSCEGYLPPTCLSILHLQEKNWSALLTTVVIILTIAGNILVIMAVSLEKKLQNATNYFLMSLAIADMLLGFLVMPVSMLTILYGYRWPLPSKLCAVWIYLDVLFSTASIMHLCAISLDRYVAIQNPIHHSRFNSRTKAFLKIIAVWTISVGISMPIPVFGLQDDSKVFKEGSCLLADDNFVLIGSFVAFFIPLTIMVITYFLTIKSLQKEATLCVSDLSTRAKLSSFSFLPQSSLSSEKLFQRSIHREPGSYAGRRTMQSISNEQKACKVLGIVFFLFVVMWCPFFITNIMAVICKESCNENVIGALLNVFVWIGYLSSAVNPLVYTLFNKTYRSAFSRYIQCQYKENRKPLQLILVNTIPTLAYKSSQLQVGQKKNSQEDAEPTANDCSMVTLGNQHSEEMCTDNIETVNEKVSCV
Sequence of Beta-lactamase (Salmonella choleraesuis (strain SC-B67), UniProt Q5J463) (Q5J463 whole entry): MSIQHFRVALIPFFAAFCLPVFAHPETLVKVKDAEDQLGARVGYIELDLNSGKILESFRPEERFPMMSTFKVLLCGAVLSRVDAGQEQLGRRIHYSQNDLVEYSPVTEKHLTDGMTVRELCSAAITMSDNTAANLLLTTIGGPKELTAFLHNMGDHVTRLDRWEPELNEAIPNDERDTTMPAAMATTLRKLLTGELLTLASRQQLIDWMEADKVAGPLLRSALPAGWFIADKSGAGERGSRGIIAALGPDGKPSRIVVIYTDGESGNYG

CCOC(=O)N1CCN(C/C(C)=C/c2ccccc2)CC1
IC50 (Coagulation factor XII): > 50 µM (inactive) | EC50 (Mu-type opioid receptor): 92.5 µM (inactive) | EC50 [1]: 11.5 µM (inactive)

Cc1ccc(NS(=O)(=O)c2ccc(N/N=C/c3ccccc3OCC(=O)O)c([N+](=O)[O-])c2)c(C)c1
IC50 (Genome polyprotein): 43.9 µM (active) | IC50 [2]: 6.32 µM (active) | IC50 [3]: 23.3 µM (active)

COc1cc(C)c2sc3ccccc3c(=O)c2c1NCCN(C)C
IC50 [4]: 36.1 µM (inactive) | AC50 [5]: 33.6 µM (active) | CC50 [6]: 53.3 µM (active) | AC50 [7]: 2.7 µM (active) | IC50 [8]: 71.4 µM (active) | AC50 [9]: 1.07 µM (active) | AC50 [10]: 5.29 µM (active)

COc1ccc(OC)c(/C=N/NC(=O)CC2C(=O)NN=C2C)c1 (stereo unspecified)
IC50 (Beta-lactamase [11]): > 59.6 µM (inactive) | IC50 (Beta-lactamase [12]): > 59.6 µM (inactive) | IC50 (Beta Lactamase [13]): 6.1 µM (active) | IC50 (Beta-lactamase [14]): > 59.6 µM (inactive) | IC50 (Beta Lactamase [15]): 2.13 µM (active)

CCOC(=O)C1CCN(S(=O)(=O)c2cccc(-c3cn4cc(C)ccc4n3)c2)CC1
AC50 [16]: > 52 µM (inactive)

COc1ccc(N2C(=O)C3C(C2=O)C(C(=O)c2ccc(Cl)cc2)N2CCCC32)cc1 (stereo unspecified)
IC50 [17]: 5.56 µM (active) | IC50 [18]: 4.36 µM (active)

— ChEMBL document CHEMBL1201862, “PubChem BioAssay data set” (2004)
